# What was measured:
# Assay in all cases: 5-day cell proliferation assay (CTG)
# Format in all cases: cell-based
# SF268 = settings: Homo sapiens, SF-268, 120 h, SF268, Brain/Nerves
# Experimental: (§1) For screening using a proliferation assay, the cells used were cultured at 37° C. with 5% CO2, except for those being cultured with L-15 medium (37° C. and 100% air, TABLE 7). Compound stock solutions (10 mM) were made in sterile water, aliquoted and stored at room temperature. Cisplatin was used as reference Control. Plastic consumables, culture media and supplements were purchased from well-known suppliers (TABLE 8).
# (§2) Cell seeding (day −1). When necessary, cells were trypsinized using standard methods (see e.g. example 01). Cells were collected and resuspended in 5-6 mL of appropriate culture medium, counted and diluted to the needed density. Fifty-four μl (microliter) cells were seeded per well in a 384-well plate. Extra four wells per cell line were seeded on an additional plate for Day 0 reading (baseline cell density). Cells were incubated at 37° C. overnight.
# (§3) Compound treatment and Day 0 reading (day 0). Tenfold final concentration of test compounds and Cisplatin were prepared in cell culture media (work dilutions). Six μl of work dilution solutions were dispensed into the corresponding wells in 384-well plates to bring the total volume up to 60 μl. Conditions were tested in triplicate. The plates were then incubated at 37° C. for five days. For the day 0 reading, 30 μl of CTG and 6 μl cell culture medium were added to the day 0 plates, contents mixed for 2 min on a plate shaker, and the plates incubated for 10 min at room temperature in the dark. Luminescence was recorded on an EnVision Multi Label Reader (2104-0010A, PerkinElmer, USA).
# (§4) Endpoint CTG reading (day 5). The amounts of cells in the plates was determined by endpoint CTG-test. Thirty μl of CTG were added to the 60 μl of cell culture per well, contents mixed for 2 min on a plate shaker, and the plates incubated for 10 min at room temperature in the dark. Luminescence was recorded on an EnVision Multi Label Reader.
# (§5) Data analysis. Fifty percent growth inhibition concentrations (GI50) were calculated based on percentage of control data (untreated cells) from each cell line (TABLE 5 (this example) and TABLE 6). Curves were fitted using a nonlinear regression model with a sigmoidal dose response. Examples of obtained curves are depicted in FIG. 2A-2F.
# K562 = settings: Homo sapiens, 120 h, K562, Leukemia
# Experimental: as §1, §2, §3, §4, §5
# LNCaP-FGC = settings: Homo sapiens, 120 h, Prostate
# Experimental: as §1, §2, §3, §4, §5
# HUH-7 = settings: Homo sapiens, 120 h, HUH-7, Liver
# Experimental: as §1, §2, §3, §4, §5
# MOLM-13 = settings: Homo sapiens, 120 h, MOLM-13, Leukemia
# Experimental: as §1, §2, §3, §4, §5
# HCC2935 = settings: Homo sapiens, 120 h, HCC2935, Lung, highest tested concentration 10 μM
# Experimental: as §1, §2, §3, §4, §5
# HEP-3B = settings: Homo sapiens, Hep3B, 120 h, Liver
# Experimental: as §1, §2, §3, §4, §5
# SK-BR-3 = settings: Homo sapiens, 120 h, SK-BR-3, Breast
# Experimental: as §1, §2, §3, §4, §5
# SK-MEL28 = settings: Homo sapiens, SK-MEL-28, 120 h, SK-MEL28, Skin
# Experimental: as §1, §2, §3, §4, §5
# Raji = settings: Homo sapiens, 120 h, Lymphoma
# Experimental: as §1, §2, §3, §4, §5
# SK-MEL5 = settings: Homo sapiens, SK-MEL-5, 120 h, SK-MEL5, Skin
# Experimental: as §1, §2, §3, §4, §5
# U937 = settings: Homo sapiens, U-937, 120 h, U937, Leukemia
# Experimental: as §1, §2, §3, §4, §5
# Granta-519 = settings: Homo sapiens, 120 h, Granta-519, Lymphoma
# Experimental: as §1, §2, §3, §4, §5
# MKN-1 = settings: Homo sapiens, 120 h, MKN-1, Stomach/Gastric
# Experimental: as §1, §2, §3, §4, §5
# A375 = settings: Homo sapiens, A-375, 120 h, A375, Skin
# Experimental: as §1, §2, §3, §4, §5
# Kasumi-1 = settings: Homo sapiens, 120 h, Kasumi-1, Leukemia
# Experimental: as §1, §2, §3, §4, §5
# Ramos = settings: Homo sapiens, 120 h, Lymphoma
# Experimental: as §1, §2, §3, §4, §5
# OVCAR-4 = settings: Homo sapiens, 120 h, OVCAR-4, Ovary
# Experimental: as §1, §2, §3, §4, §5
# WM-266-4 = settings: Homo sapiens, 120 h, WM-266-4, Skin
# Experimental: as §1, §2, §3, §4, §5
# DoTc2 4510 = settings: Homo sapiens, 120 h, DoTc2 4510, Cervix
# Experimental: as §1, §2, §3, §4, §5
# MOLT-4 = settings: Homo sapiens, 120 h, MOLT-4, Leukemia
# Experimental: as §1, §2, §3, §4, §5
# Caki 2 = settings: Homo sapiens, 120 h, Caki 2, Kidney
# Experimental: as §1, §2, §3, §4, §5
# KARPAS-422 = settings: Homo sapiens, 120 h, KARPAS-422, Lymphoma
# Experimental: as §1, §2, §3, §4, §5
# PC-3 = settings: Homo sapiens, 120 h, PC-3, Prostate
# Experimental: as §1, §2, §3, §4, §5
# KYSE-150 = settings: Homo sapiens, 120 h, KYSE-150, Oesophagus
# Experimental: as §1, §2, §3, §4, §5
# SW480 = settings: Homo sapiens, 120 h, SW480, Colorectal
# Experimental: as §1, §2, §3, §4, §5
compound,measurement,setting,value
"CC(C)C[C@@H]1NCCN([C@@H](CC(C)C)C(=O)N2CCC3(C[C@@H]2C)OCC(CN2CCCC2)CO3)C1=O (stereo partly drawn) [Compound 258, (3S)-1-[(2S)-4-methyl-1-oxo-1-[(3s,6s,8S)-8-methyl-3-(pyrrolidin-1-ylmethyl)-1,5-dioxa-9-azaspiro[5.5]undec-an-9-yl]pentan-2-yl]-3-(2-methylpropyl)piper-azin-2-one (^≠), isomer Z]",GI50,SF268,30 nM
same,GI50,K562,17 nM
same,GI50,LNCaP-FGC,2 nM
same,GI50,HUH-7,10 nM
same,GI50,MOLM-13,4 nM
same,GI50,HCC2935,> 10000 nM
same,GI50,HEP-3B,23 nM
same,GI50,SK-BR-3,12 nM
same,GI50,SK-MEL28,50 nM
same,GI50,Raji,28 nM
same,GI50,SK-MEL5,51 nM
same,GI50,U937,22 nM
same,GI50,Granta-519,38 nM
same,GI50,MKN-1,2 nM
same,GI50,A375,6 nM
same,GI50,Kasumi-1,19 nM
same,GI50,Ramos,27 nM
same,GI50,OVCAR-4,12 nM
same,GI50,WM-266-4,41 nM
same,GI50,DoTc2 4510,14 nM
same,GI50,MOLT-4,9 nM
same,GI50,Caki 2,14 nM
same,GI50,KARPAS-422,48 nM
same,GI50,PC-3,13 nM
same,GI50,KYSE-150,11 nM
same,GI50,SW480,22 nM

# Reference: patent publication US20250115571A1, “OXOPIPERAZINE DERIVATIVES” (Inthera Bioscience AG, priority 2017, published 2025)
